# According to patent publication US9399649B2, “Compounds for treating spinal muscular atrophy” (PTC Therapeutics Inc., priority 2012, dated 2016):
# What was measured:
# [1] = tested on: full length and Δ7 SMN2 mRNA; test: Endogenous SMN2 mRNA end-point semi-quantitative RT-PCR splicing assay in animal tissues; format: in vivo; settings: C/C-allele SMA mice, brain and muscle, oral BID for 10 days, FIG. 7
# Description: The endpoint reverse transcription-PCR (RT-PCR) splicing assay is used to quantify the levels of the full length and Δ7 SMN2 mRNA in tissues from mice treated with test compound.
# C/C-allele SMA mice are treated by oral gavage BID for 10 days with test compounds in 0.5% HPMC and 0.1% Tween-80. Tissue samples are collected and snap frozen for RNA purification.
# Tissue samples (20-40 mg) are homogenized in QIAzol Lysis Reagent for 2 minutes at 20 Hz in the TissueLyser II using one stainless steel bead. After addition of chloroform, the homogenate is separated into aqueous and organic phases by centrifugation. RNA partitioned to the upper, aqueous phase is extracted and ethanol is added to provide appropriate binding conditions. The sample is then applied to the RNeasy spin column from the RNeasy Mini Kit, where total RNA binds to the membrane. The RNA is eluted in RNase-free water then stored at −20° C.
# SMN2 spliced products are identified using the following amplification primers in Table 8. These primers hybridize to a nucleotide sequence in exon 6 (SMN Forward D, SEQ ID NO. 13) (nucleotide 22 to nucleotide 46) and exon 8 (SMN Reverse C, SEQ ID NO. 12), common to human SMN1 and SMN2 mRNA. […]
# [2] = tested on: full length and Δ7 SMN2 mRNA; test: Endogenous SMN2 mRNA RT-qPCR splicing assay in cultured cells; format: cell-based, human; settings: Type 1 SMA patient fibroblasts (GM03813), increasing concentrations, 24 hr, FIG. 4
# Description: The reverse transcription-quantitative PCR-based (RT-qPCR) assay is used to quantify the levels of the full length and Δ7 SMN2 mRNA in primary cells and cell lines containing the SMN2 gene treated with a test compound.
# GM03813 SMA patient cells (5,000 cells/well) are seeded in 200 μL, of cell culture medium (DMEM plus 10% FBS) in 96-well flat-bottom plates and the plate is immediately swirled to ensure proper dispersal of cells, forming an even monolayer of cells. Cells are allowed to attach for at least 4-6 hrs. Test compounds are serially diluted 3.16-fold in 100% DMSO to generate a 7-point concentration curve. A solution of test compound (1 μL, 200× in DMSO) is added to each test well and 1 μL, DMSO is added to each control well. The plate is incubated for 24 hrs in a cell culture incubator (37° C., 5% CO2, 100% relative humidity). The cells are then lysed in Cells-To-Ct lysis buffer and the lysate is stored at 80° C.
# SMN2-specific spliced products and GAPDH mRNA are identified using the following primers and probes in Table 5. Primer SMN FL Forward B (SEQ ID NO. 7) hybridizes to a nucleotide sequence in exon 7 (nucleotide 32 to nucleotide 54) and exon 8 (nucleotide 1 to nucleotide 4), primer SMN Δ7 Forward B (SEQ ID NO. 8) hybridizes to a nucleotide sequence in exon 6 (nucleotide 87 to nucleotide 111) and exon 8 (nucleotide 1 to nucleotide 3), primer SMN Reverse B (SEQ ID NO. 9) hybridizes to a nucleotide sequence in exon 8 (nucleotide 39 to nucleotide 62), probe SMN Probe B (SEQ ID NO. 10) hybridizes to a nucleotide sequence in exon 8 (nucleotide 7 to nucleotide 36). These primers and probe hybridize to nucleotide sequences common to human SMN1 and SMN2 mRNA. Since the SMA patient cells used in Example 3 contain only the SMN2 gene, RT-qPCR can quantify only SMN2 full-length and Δ7 mRNA.
# The SMN forward and reverse primers are used at final concentrations of 0.4 μM. The SMN probe is used at a final concentration of 0.15 μM. GAPDH primers are used at final concentrations of 0.1 μM and the probe at 0.075 μM. The One-Step RT-PCR kit was used as the Real-Time PCR Mix. […]
# The increase of SMN2 FL and decrease in SMN2 Δ7 mRNA relative to those in cells treated with vehicle control are determined from real-time PCR data using a modified ΔΔCt method (as described in Livak and Schmittgen, Methods, 2001, 25:402-8). The amplification efficiency (E) is calculated from the slope of the amplification curve for SMN2 FL, SMN2 Δ7, and GAPDH individually. The abundances of SMN2 FL, SMN2 Δ7, and GAPDH are then calculated as (1+E)^−Ct, where Ct is the threshold value for each amplicon. […]
SMILES,SMN2 FL mRNA in tissues (gel band) [1],SMN2 Δ7 mRNA in tissues (gel band) [1],SMN2 FL mRNA relative to vehicle [2],SMN2 Δ7 mRNA relative to vehicle [2]
"Cc1cn2cc(-c3cc4ccc(N5CCN(C)CC5)cc4c(=O)o3)nc2c(C)n1 [Cpd 65, 3-(6,8-dimethylimidazo[1,2-a]pyrazin-2-yl)-7-(4-methylpiperazin-1-yl)-1H-isochromen-1-one]",progressively more SMN2 FL mRNA,less SMN2 Δ7 mRNA,progressively more SMN2 FL mRNA,less SMN2 Δ7 mRNA
"Cc1cn2cc(-c3cc4ccc(N5CCN6CCC[C@H]6C5)cc4c(=O)o3)nc2c(C)n1 [Cpd 69, 3-(6,8-dimethylimidazo[1,2-a]pyrazin-2-yl)-7-[(8aS)-hexahydropyrrolo[1,2-a]pyrazin-2(1H)-yl]-1H-isochromen-1-one]",,,progressively more SMN2 FL mRNA,less SMN2 Δ7 mRNA
